Experimental data as given in patent US20230023559A1, “ARYLMETHYLENE HETEROCYCLIC COMPOUNDS AS KV1.3 POTASSIUM SHAKER CHANNEL BLOCKERS” (D. E. Shaw Research, LLC, priority 2019, published 2023).

Tests used:
Kv1.3 potassium channel = target: T1, Kv1.3 potassium channel (Homo sapiens, UniProt P22001); assay: Kv1.3 potassium channel blocker activity, automated whole-cell patch clamp (Patchliner); type: cell-based; conditions: CHO-K1 cells stably expressing Kv1.3; whole cell current inhibition; read-out: Kv1.3_IC50
T1 construct: expressed in transfected cells
T1 sequence (P22001 whole entry): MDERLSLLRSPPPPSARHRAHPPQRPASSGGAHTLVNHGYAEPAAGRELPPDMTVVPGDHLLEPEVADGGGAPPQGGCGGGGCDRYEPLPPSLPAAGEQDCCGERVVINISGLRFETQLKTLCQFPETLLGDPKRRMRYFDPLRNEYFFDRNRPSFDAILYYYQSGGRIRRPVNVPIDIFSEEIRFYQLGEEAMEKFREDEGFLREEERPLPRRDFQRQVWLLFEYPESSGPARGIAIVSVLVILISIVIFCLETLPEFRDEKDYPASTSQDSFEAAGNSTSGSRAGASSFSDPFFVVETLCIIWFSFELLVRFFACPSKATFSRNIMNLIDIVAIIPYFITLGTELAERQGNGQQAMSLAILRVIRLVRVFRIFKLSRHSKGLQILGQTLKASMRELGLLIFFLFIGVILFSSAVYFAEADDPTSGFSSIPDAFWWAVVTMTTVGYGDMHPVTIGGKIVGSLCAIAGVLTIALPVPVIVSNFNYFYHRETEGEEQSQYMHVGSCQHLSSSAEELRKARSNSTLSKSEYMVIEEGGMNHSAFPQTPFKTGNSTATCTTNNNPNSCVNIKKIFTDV
Summary of the method: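 CHO-K1 cells stably expressing Kv1.3, automated whole-cell patch clamp. Currents evoked by 100 ms steps from −90 mV holding to +40 mV at 0.1 Hz, sampled at 10 kHz unfiltered, P/4 leak subtraction; peak current inhibition measured, compound incubation ≤10 s between pulse trains.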

hERG channel = hERG channel (Homo sapiens, UniProt Q12809); assay: hERG electrophysiology, automated whole-cell patch clamp (Patchliner)
Chain of hERG channel (Q12809 whole entry): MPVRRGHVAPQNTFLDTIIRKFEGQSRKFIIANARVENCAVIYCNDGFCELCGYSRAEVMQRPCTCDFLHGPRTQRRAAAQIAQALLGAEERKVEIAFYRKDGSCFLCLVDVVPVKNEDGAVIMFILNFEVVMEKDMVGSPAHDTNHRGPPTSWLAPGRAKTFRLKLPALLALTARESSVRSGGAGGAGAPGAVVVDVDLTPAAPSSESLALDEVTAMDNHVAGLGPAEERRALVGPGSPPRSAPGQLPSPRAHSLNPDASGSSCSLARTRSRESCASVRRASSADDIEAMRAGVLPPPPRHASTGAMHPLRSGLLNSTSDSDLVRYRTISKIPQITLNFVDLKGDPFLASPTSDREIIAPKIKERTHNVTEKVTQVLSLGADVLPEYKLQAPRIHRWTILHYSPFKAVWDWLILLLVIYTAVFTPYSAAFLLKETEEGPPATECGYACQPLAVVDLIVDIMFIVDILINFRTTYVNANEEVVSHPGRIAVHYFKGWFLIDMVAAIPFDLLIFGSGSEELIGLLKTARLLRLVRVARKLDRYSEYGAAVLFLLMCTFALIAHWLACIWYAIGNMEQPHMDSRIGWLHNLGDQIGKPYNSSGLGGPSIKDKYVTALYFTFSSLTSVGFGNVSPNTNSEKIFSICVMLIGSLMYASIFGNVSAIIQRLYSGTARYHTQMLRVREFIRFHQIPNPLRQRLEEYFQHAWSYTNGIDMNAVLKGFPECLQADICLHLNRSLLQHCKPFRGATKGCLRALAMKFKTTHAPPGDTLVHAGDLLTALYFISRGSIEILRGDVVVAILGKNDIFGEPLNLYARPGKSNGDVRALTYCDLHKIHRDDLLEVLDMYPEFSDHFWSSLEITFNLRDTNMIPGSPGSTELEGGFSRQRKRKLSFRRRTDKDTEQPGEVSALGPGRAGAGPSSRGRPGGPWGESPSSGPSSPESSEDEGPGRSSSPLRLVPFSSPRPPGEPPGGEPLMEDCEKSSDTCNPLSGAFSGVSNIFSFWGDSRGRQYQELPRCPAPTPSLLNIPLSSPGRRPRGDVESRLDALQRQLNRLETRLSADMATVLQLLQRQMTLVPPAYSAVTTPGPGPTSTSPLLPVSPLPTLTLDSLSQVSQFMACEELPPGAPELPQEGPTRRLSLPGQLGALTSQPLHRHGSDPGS

Row | SMILES | IC50 (Kv1.3 potassium channel) | IC50 (hERG channel)
1 | N[C@@H](c1cc(Cl)c(Cl)cc1O)C1CCN(S(=O)(=O)c2cn[nH]c2)CC1 [Compound 158, 2-[(R)-amino[1-(1H-pyrazole-4-sulfonyl)piperidin-4-yl]methyl]-4,5-dichlorophenol Trifluoroacetic Acid] | < 10 µM | < 30 µM
2 | Cc1n[nH]c(C)c1C(=O)N1CCC([C@@H](N)c2cc(Cl)c(Cl)cc2O)CC1 [Compound 159, 2-[(R)-amino[1-(3,5-dimethyl-1H-pyrazole-4-carbonyl)piperidin-4-yl]methyl]-4,5-dichlorophenol] | < 10 µM | > 30 µM
3 | N[C@@H](c1cc(Cl)c(Cl)cc1O)C1CCN(C(=O)C23CC(O)(C2)C3)CC1 [Compound 160, 3-[4-[(R)-amino(4,5-dichloro-2-hydroxyphenyl)methyl]piperidine-1-carbonyl]bicyclo [1.1.1]pentan-1-ol trifluoroacetic acid] | < 10 µM | < 30 µM
4 | N[C@@H](c1cc(Cl)c(Cl)cc1O)C1CCN(C(=O)C2CC(F)(F)C2)CC1 [Compound 161, 2-[(R)-amino[1-(3,3-difluorocyclo-butanecarbonyl)piperidin-4-yl]methyl]-4,5-dichlorophenol] | < 10 µM | < 30 µM
5 | CC1(O)CC(C(=O)N2CCC([C@@H](N)c3cc(Cl)c(Cl)cc3O)CC2)C1 (stereo partly drawn) [Compound 163, 2-[(R)-amino[1-(3-hydroxy-3-methylcyclo-butanecarbonyl)piperidin-4-yl]methyl]-4,5-dichlorophenol] | < 10 µM | > 30 µM
6 | N[C@@H](c1cc(Cl)c(Cl)cc1O)C1CCN(C(=O)c2cnc[nH]2)CC1 [Compound 164, 2-[(R)-amino[1-(1H-imidazole-4-carbonyl)piperidin-4-yl]methyl]-4,5-dichlorophenol formic acid] | < 10 µM | > 30 µM
7 | N[C@@H](c1cc(Cl)c(Cl)cc1O)C1CCN(C(=O)[C@@H]2CCC(=O)N2)CC1 [Compound 166, (5S)-5-[4-[(R)-amino(4,5-dichloro-2-hydroxyphenyl)methyl]piperidine-1-carbonyl] pyrrolidin-2-one trifluoroacetic acid] | < 10 µM | > 30 µM
8 | N[C@@H](c1cc(Cl)c(Cl)cc1O)C1CCN(C(=O)[C@H]2COCCO2)CC1 [Compound 169, 2-[(R)-amino([1-[(2R)-1,4-dioxane-2-carbonyl]piperidin-4-yl])methyl]-4,5-dichlorophenol trifluoroacetic acid] | < 10 µM | < 30 µM
9 | N[C@@H](c1cc(Cl)c(Cl)cc1O)C1CCN(C(=O)[C@@H]2COCCO2)CC1 [Compound 170, 2-[(R)-amino([1-[(2S)-1,4-dioxane-2-carbonyl]piperidin-4-yl])methyl]-4,5-dichlorophenol trifluoroacetic acid] | < 10 µM | < 30 µM
10 | N[C@@H](c1cc(Cl)c(Cl)cc1O)C1CCN(C(=O)C2CCNC(=O)C2)CC1 (stereo partly drawn) [Compound 172, 4-[4-[(R)-amino(4,5-dichloro-2-hydroxyphenyl)methyl]piperidine-1-carbonyl] piperidin-2-one trifluoroacetic acid] | < 10 µM | > 30 µM
11 | C[C@@H](O)[C@H](N)C(=O)N1CCC([C@@H](N)c2cc(Cl)c(Cl)cc2O)CC1 [Compound 174, (2S,3R)-2-amino-1-[4-[(R)-amino(4,5-dichloro-2-hydroxyphenyl)methyl]piperidin-1-yl]-3-hydroxybutan-1-one bis (trifluoroacetic acid)] | < 10 µM | > 30 µM
12 | N[C@@H](c1cc(Cl)c(Cl)cc1O)C1CCN(C(=O)c2cc(=O)[nH]cn2)CC1 [Compound 176, (R)-(4-(amino (4,5-dichloro-2-hydroxyphenyl)methyl)piperidin-1-yl)(6-hydroxy-pyrimidin-4-yl)methanone trifluoroacetic acid] | < 10 µM | > 30 µM
13 | CO[C@@H](CO)C(=O)N1CCC([C@@H](N)c2cc(Cl)c(Cl)cc2O)CC1 [Compound 185, (2S)-1-[4-[(R)-amino(4,5-dichloro-2-hydroxyphenyl)methyl]piperidin-1-yl]-3-hydroxy-2-methoxypropan-1-one trifluoroacetic acid] | < 10 µM | > 30 µM
14 | N[C@@H](c1c(O)cc(Cl)c(Cl)c1Cl)C1CCN(C(=O)[C@H](O)CO)CC1 [Compound 188, (R)-1-(4-((R)-amino(2,3,4-trichloro-6-hydroxyphenyl)methyl)piperidin-1-yl)-2,3-dihydroxypropan-1-one Trifluoroacetic Acid] | < 10 µM | > 30 µM
15 | N[C@@H](c1c(O)ccc2ccccc12)C1CCN(C(=O)[C@H](O)CO)CC1 [Compound 191, (2R)-1-[4-[(R)-amino(2-hydroxynaphthalen-1-yl)methyl]piperidin-1-yl]-2,3-dihydroxypropan-1-one Trifluoroacetic Acid] | < 10 µM | > 30 µM
16 | N[C@@H](c1cc(Cl)c(Cl)cc1O)C1CCN(C(=O)COC2COC2)CC1 [Compound 192, 1-[4-[(R)-amino(4,5-dichloro-2-hydroxyphenyl)methyl]piperidin-1-yl]-2-(oxetan-3-yloxy)ethan-1-one] | < 0.5 µM | > 30 µM

The next lines start with results.

Row | IC50 (Kv1.3 potassium channel) | SMILES | IC50 (hERG channel)
17 | < 0.5 µM | N[C@@H](c1cc(Cl)c(Cl)cc1O)C1CCN(C(=O)Cc2cn[nH]c2)CC1 [Compound 162, 1-[4-[(R)-amino(4,5-dichloro-2-hydroxyphenyl)methyl]piperidin-1-yl]-2-(1H-pyrazol-4-yl)ethan-1-one trifluoroacetic acid] | > 30 µM
18 | < 0.5 µM | N[C@@H](c1cc(Cl)c(Cl)cc1O)C1CCN(C(=O)[C@H]2CCC(=O)N2)CC1 [Compound 165, (5R)-5-[4-[(R)-amino(4,5-dichloro-2-hydroxyphenyl)methyl]piperidine-1-carbonyl] pyrrolidin-2-one trifluoroacetic acid] | > 30 µM
19 | < 0.5 µM | N[C@@H](CO)C(=O)N1CCC([C@@H](N)c2cc(Cl)c(Cl)cc2O)CC1 [Compound 167, (2S)-2-amino-1-[4-[(R)-amino(4,5-dichloro-2-hydroxyphenyl)methyl]piperidin-1-yl]-3-hydroxypropan-1-one] | > 30 µM
20 | < 0.5 µM | CO[C@H](CO)C(=O)N1CCC([C@@H](N)c2cc(Cl)c(Cl)cc2O)CC1 [Compound 168, (2R)-1-[4-[(R)-amino(4,5-dichloro-2-hydroxyphenyl)methyl]piperidin-1-yl]-3-hydroxy-2-methoxypropan-1-one trifluoroacetic acid] | > 30 µM
21 | < 0.5 µM | N[C@H](CO)C(=O)N1CCC([C@@H](N)c2cc(Cl)c(Cl)cc2O)CC1 [Compound 171, (2R)-2-amino-1-[4-[(R)-amino(4,5-dichloro-2-hydroxyphenyl)methyl]piperidin-1-yl]-3-hydroxypropan-1-one] | > 30 µM
22 | < 0.5 µM | C[C@H](O)[C@@H](N)C(=O)N1CCC([C@@H](N)c2cc(Cl)c(Cl)cc2O)CC1 [Compound 173, (2R,3S)-2-amino-1-(4-((R)-amino(4,5-dichloro-2-hydroxyphenyl)methyl)piperidin-1-yl)-3-hydroxybutan-1-one bis (trifluoroacetic acid)] | > 30 µM
23 | < 0.5 µM | C[C@H](O)[C@H](N)C(=O)N1CCC([C@@H](N)c2cc(Cl)c(Cl)cc2O)CC1 [Compound 175, (2S,3S)-2-amino-1-[4-[(R)-amino(4,5-dichloro-2-hydroxyphenyl)methyl]piperidin-1-yl]-3-hydroxybutan-1-one bis trifluoroacetic acid] | > 30 µM
24 | < 0.5 µM | N[C@@H](c1cc(Cl)c(Cl)cc1O)C1CCN(C(=O)c2cccc(=O)[nH]2)CC1 [Compound 178, (R)-6-(4-(amino(4,5-dichloro-2-hydroxyphenyl)methyl)piperidine-1-carbonyl) pyridin-2(1H)-one formic acid] | > 30 µM
25 | < 0.5 µM | N[C@@H](c1cc(Cl)c(Cl)cc1O)C1CCN(c2cc[nH]c(=O)c2)CC1 [Compound 180, 4-[4-[(R)-amino(4,5-dichloro-2-hydroxyphenyl)methyl]piperidin-1-yl]-1,2-dihydropyridin-2-one Trifluoroacetic Acid] | > 30 µM
26 | < 0.5 µM | COC[C@H](O)C(=O)N1CCC([C@@H](N)c2cc(Cl)c(Cl)cc2O)CC1 [Compound 181, (2S)-1-[4-[(R)-amino(4,5-dichloro-2-hydroxyphenyl)methyl]piperidin-1-yl]-2-hydroxy-3-methoxypropan-1-one trifluoroacetic acid] | > 30 µM
27 | < 0.5 µM | Nc1nc(N2CCC([C@@H](N)c3cc(Cl)c(Cl)cc3O)CC2)no1 [Compound 183, 2-[(R)-amino[1-(5-amino-1,2,4-oxadiazol-3-yl)piperidin-4-yl]methyl]-4,5-dichlorophenol] | < 30 µM
28 | < 0.5 µM | N[C@@H](c1cc(Cl)c(Cl)cc1O)C1CCN(C(=O)c2c[nH]c(=O)cn2)CC1 [Compound 186, (R)-5-(4-(amino(4,5-dichloro-2-hydroxyphenyl)methyl)piperidine-1-carbonyl) pyrazin-2(1H)-one] | > 30 µM
29 | < 0.5 µM | N[C@@H](c1cc2ccccc2cc1O)C1CCN(C(=O)[C@H](O)CO)CC1 [Compound 189, (2R)-1-[4-[(R)-amino(3-hydroxynaphthalen-2-yl)methyl]piperidin-1-yl]-2,3-dihydroxypropan-1-one Trifluoroacetic Acid] | > 30 µM
30 | < 0.5 µM | Cc1cc(O)c([C@H](N)C2CCN(C(=O)[C@H](O)CO)CC2)cc1Cl [Compound 190, (2R)-1-[4-[(R)-amino(5-chloro-2-hydroxy-4-methylphenyl)methyl]piperidin-1-yl]-2,3-dihydroxypropan-1-one Trifluoroacetic Acid] | > 30 µM
